Experiments:
HiBit-BRM fusion protein = molecular target: T1, HiBit-BRM fusion protein (Homo sapiens, UniProt P51531); experiment: HiBiT-BRM cell-based degradation assay (Nano-Glo HiBiT Lytic Detection, 24 h); conditions: HeLa cell line expressing HiBiT-BRM; for DC50: read-out: BRM HiBit Degradation IC50
T1 construct: expressed in transfected cells
Outline: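 HeLa cells stably expressing HiBiT-BRM were treated for 24 h with compounds (10-point 3-fold dilutions, 30 μM final top dose, in duplicate). HiBiT was detected by lytic LgBiT complementation luminescence. % degradation was normalized to DMSO (high control) and 2 μM of a reference BRM/BRG1 degrader (low control).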

[1] = molecular target: T2, HiBit-BRG1 fusion protein (Homo sapiens, UniProt P51532); experiment: HiBiT-BRG1 cell-based degradation assay (Nano-Glo HiBiT Lytic Detection, 24 h); conditions: HeLa cell line expressing HiBit-BRG1 and LgBit; for Dmax: read-out: BRG1 HiBit Degradation Maximum (%)
T2 construct: expressed in transfected cells
T2 sequence (P51532 whole entry, the tested form may be a part): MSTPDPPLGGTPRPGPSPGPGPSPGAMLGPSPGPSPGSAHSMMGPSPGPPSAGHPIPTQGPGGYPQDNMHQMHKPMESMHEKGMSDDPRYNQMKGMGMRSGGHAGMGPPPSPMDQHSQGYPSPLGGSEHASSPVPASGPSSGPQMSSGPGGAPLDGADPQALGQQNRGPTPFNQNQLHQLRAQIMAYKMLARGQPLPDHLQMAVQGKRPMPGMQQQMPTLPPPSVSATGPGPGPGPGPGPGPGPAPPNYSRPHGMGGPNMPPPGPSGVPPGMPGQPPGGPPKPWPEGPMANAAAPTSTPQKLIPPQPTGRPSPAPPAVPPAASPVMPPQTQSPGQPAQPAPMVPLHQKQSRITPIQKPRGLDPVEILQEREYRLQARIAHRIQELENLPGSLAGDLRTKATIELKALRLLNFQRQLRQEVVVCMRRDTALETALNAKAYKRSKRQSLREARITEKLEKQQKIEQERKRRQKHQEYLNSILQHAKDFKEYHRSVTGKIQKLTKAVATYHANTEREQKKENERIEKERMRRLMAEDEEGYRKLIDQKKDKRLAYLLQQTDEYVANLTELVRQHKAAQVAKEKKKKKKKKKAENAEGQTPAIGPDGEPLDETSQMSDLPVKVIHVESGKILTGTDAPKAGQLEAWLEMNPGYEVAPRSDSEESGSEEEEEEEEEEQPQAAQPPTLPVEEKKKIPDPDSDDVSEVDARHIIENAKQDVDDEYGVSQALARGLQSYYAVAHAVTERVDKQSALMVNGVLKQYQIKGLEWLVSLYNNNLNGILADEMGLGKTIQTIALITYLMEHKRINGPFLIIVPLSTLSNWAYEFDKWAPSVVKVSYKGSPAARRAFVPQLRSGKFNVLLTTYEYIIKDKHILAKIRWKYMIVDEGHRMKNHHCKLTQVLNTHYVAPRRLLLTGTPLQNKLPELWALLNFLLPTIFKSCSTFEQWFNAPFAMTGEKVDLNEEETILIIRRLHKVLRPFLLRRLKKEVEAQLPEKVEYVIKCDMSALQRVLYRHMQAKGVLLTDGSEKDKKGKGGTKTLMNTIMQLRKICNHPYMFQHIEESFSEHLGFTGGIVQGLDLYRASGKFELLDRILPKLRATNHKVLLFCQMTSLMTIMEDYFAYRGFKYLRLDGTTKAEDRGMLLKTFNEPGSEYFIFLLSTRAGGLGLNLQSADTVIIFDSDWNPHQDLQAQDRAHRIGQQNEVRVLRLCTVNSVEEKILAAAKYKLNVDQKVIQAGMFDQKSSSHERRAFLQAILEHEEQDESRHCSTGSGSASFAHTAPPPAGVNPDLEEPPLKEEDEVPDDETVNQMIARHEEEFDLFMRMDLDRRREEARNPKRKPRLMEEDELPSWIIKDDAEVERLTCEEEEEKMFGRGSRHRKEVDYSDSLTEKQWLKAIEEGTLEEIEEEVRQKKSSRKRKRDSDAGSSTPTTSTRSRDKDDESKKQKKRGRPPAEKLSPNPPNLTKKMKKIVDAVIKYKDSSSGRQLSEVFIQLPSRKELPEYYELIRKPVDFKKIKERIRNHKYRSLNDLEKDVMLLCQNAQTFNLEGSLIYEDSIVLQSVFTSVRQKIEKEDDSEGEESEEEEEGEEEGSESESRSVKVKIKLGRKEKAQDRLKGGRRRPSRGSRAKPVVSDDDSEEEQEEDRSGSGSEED
Outline: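 HeLa cells stably expressing HiBiT-BRG1 plus LgBit, 5000/well, treated 24 h, then lysed with Nano-Glo HiBiT lytic reagent and luminescence read. % degradation normalised between DMSO (high control) and 2 μM reference BRM/BRG1 degrader (low control).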

[2] = read-out: BRMG1 HiBit Degradation IC50

T1 sequence (P51531 whole entry, the tested form may be a part): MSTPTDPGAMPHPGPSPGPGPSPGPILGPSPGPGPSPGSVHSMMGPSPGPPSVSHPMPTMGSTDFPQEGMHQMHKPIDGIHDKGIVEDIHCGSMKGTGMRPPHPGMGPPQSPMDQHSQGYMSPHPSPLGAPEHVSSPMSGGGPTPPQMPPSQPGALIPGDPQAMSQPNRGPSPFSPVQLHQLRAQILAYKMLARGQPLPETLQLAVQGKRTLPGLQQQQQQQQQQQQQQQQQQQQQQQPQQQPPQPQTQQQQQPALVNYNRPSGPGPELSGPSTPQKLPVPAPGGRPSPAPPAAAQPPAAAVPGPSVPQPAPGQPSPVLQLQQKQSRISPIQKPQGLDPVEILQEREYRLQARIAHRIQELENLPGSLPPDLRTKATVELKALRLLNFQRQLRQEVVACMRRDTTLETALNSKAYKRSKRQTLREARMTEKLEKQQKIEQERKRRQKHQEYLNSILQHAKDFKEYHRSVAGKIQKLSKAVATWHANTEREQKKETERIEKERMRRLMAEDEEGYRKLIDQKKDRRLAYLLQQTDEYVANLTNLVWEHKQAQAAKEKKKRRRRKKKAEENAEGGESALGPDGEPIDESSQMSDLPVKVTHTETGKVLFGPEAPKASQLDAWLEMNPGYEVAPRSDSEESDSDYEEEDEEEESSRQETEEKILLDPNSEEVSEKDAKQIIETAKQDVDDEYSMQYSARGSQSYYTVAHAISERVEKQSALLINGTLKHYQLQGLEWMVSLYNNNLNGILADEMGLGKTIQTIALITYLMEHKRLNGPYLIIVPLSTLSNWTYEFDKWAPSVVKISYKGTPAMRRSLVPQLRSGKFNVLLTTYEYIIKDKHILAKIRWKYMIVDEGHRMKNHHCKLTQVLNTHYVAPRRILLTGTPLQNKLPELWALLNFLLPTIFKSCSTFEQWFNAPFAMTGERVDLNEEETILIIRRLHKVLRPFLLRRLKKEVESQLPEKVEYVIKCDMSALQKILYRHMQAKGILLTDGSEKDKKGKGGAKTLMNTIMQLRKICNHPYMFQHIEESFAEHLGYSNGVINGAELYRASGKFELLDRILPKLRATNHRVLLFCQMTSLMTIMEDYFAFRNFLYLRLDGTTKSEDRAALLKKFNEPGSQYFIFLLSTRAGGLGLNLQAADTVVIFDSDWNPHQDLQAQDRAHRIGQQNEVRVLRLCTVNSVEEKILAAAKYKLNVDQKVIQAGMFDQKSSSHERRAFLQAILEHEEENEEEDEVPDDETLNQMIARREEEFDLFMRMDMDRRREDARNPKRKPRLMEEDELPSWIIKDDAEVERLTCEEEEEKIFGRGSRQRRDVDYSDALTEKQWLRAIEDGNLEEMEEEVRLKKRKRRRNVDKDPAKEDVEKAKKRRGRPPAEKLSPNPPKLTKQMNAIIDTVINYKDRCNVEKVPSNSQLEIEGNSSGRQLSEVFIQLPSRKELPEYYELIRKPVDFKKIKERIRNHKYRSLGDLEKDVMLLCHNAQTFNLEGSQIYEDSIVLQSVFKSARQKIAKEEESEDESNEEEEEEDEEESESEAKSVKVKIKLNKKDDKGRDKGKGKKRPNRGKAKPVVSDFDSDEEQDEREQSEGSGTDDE

Row | Compound | DC50 (HiBit-BRM fusion protein) | Dmax [1] | DC50 [1, 2] | BRM HiBit Degradation Maximum (%) (HiBit-BRM fusion protein) | IC50 (HiBit-BRM fusion protein) | BRG1 HiBit Degradation Maximum (%) [1] | IC50 [1, 2]
1 | Cc1ncsc1-c1ccc([C@H](C)NC(=O)[C@@H]2C[C@@H](O)CN2C(=O)[C@@H](c2cc(N3CCC(N4CCc5[nH]c6nnc(-c7ccccc7O)cc6c5C4)CC3)no2)C(C)C)cc1 (racemic) [Compound 183, (2S,4R)-4-hydroxy-1-((R)-2-(3-(4-(3-(2-hydroxyphenyl)-5,7,8,9-tetrahydro-6H-pyrido[3′,4′:4,5]pyrrolo[2,3-c]pyridazin-6-yl)piperidin-1-yl)isoxazol-5-yl)-3-methylbutanoyl)-N-((S)-1-(4-(4-methylthiazol-5-yl)phenyl)ethyl)pyrrolidine-2-carboxamide] | > 100 nM | < 50% |  | A (“A” indicates maximum degradation ≥ 75%) |  |  | 
2 | Cc1ncsc1-c1ccc([C@H](C)NC(=O)[C@@H]2C[C@@H](O)CN2C(=O)[C@@H](c2cc(OCCN3CC(c4cn(C(F)F)c5nnc(-c6ccccc6O)cc45)C3)no2)C(C)C)cc1 [Compound 116, (2S,4R)-1-((R)-2-(3-(2-(3-(7-(difluoromethyl)-3-(2-hydroxyphenyl)-7H-pyrrolo[2,3-c]pyridazin-5-yl)azetidin-1-yl)ethoxy)isoxazol-5-yl)-3-methylbutanoyl)-4-hydroxy-N-((S)-1-(4-(4-methylthiazol-5-yl)phenyl)ethyl)pyrrolidine-2-carboxamide] |  | < 50% |  | C (“C” indicates maximum degradation < 50%) |  |  | 
3 | Cc1ncsc1-c1ccc([C@H](C)NC(=O)[C@@H]2C[C@@H](O)CN2C(=O)[C@@H](c2cc(OCCN3CCN(CCN4CC(c5cc6cc(-c7ccccc7O)nnc6[nH]5)C4)CC3)no2)C(C)C)cc1 (racemic) [Compound 58, (2S,4R)-4-hydroxy-1-((R)-2-(3-(2-(4-(2-(3-(3-(2-hydroxyphenyl)-7H-pyrrolo[2,3-c]pyridazin-6-yl)azetidin-1-yl)ethyl)piperazin-1-yl)ethoxy)isoxazol-5-yl)-3-methylbutanoyl)-N-((S)-1-(4-(4-methylthiazol-5-yl)phenyl)ethyl)pyrrolidine-2-carboxamide] | > 100 nM | > 75% | > 100 nM | A (“A” indicates maximum degradation ≥ 75%) |  |  | 
4 | Cc1ncsc1-c1ccc([C@H](C)NC(=O)[C@@H]2C[C@@H](O)CN2C(=O)[C@@H](c2cc(OCCN3CC(n4c(=O)[nH]c5nnc(-c6ccccc6O)cc54)C3)no2)C(C)C)cc1 (racemic) [Compound 206, (2S,4R)-4-hydroxy-1-[(2R)-2-[3-(2-{3-[3-(2-hydroxyphenyl)-6-oxo-7H-imidazo[4,5-c]pyridazin-5-yl]azetidin-1-yl}ethoxy)-1,2-oxazol-5-yl]-3-methylbutanoyl]-N-[(1S)-1-[4-(4-methyl-1,3-thiazol-5-yl)phenyl]ethyl]pyrrolidine-2-carboxamide] |  | < 50% |  | C (“C” indicates maximum degradation < 50%) |  |  | 
5 | Cc1ncsc1-c1ccc([C@H](C)NC(=O)[C@@H]2C[C@@H](O)CN2C(=O)[C@@H](c2cc(N3CCN(C(=O)[C@H]4C[C@]5(Cc6cc(-c7ccccc7O)nnc6N5)C4)CC3)no2)C(C)C)cc1 [Compound 77, (2S,4R)-4-hydroxy-1-((R)-2-(3-(4-((1S,3r)-3′-(2-hydroxyphenyl)-5′,7′-dihydrospiro[cyclobutane-1,6′-pyrrolo[2,3-c]pyridazine]-3-carbonyl)piperazin-1-yl)isoxazol-5-yl)-3-methylbutanoyl)-N-((S)-1-(4-(4-methylthiazol-5-yl)phenyl)ethyl)pyrrolidine-2-carboxamide] |  |  |  | A (“A” indicates maximum degradation ≥ 75%) | > 10 nM | A (“A” indicates maximum degradation ≥ 75%) | > 100 nM
6 | Cc1ncsc1-c1ccc(CNC(=O)[C@@H]2C[C@@H](O)CN2C(=O)[C@@H](NC(=O)CCN2CC(c3c[nH]c4nnc(-c5ccccc5O)cc34)C2)C(C)(C)C)cc1 [Compound 35, (2S,4R)-4-hydroxy-1-((S)-2-(3-(3-(3-(2-hydroxyphenyl)-7H-pyrrolo[2,3-c]pyridazin-5-yl)azetidin-1-yl)propanamido)-3,3-dimethylbutanoyl)-N-(4-(4-methylthiazol-5-yl)benzyl)pyrrolidine-2-carboxamide] |  | < 50% |  | C (“C” indicates maximum degradation < 50%) |  |  | 

Now from value to molecule, other results behind:

Row | DC50 (HiBit-BRM fusion protein) | Dmax [1] | DC50 [1, 2] | Compound | BRM HiBit Degradation Maximum (%) (HiBit-BRM fusion protein) | IC50 (HiBit-BRM fusion protein) | BRG1 HiBit Degradation Maximum (%) [1] | IC50 [1, 2]
7 | > 10 nM | > 50% | > 100 nM | Cc1ncsc1-c1ccc([C@H](C)NC(=O)[C@@H]2C[C@@H](O)CN2C(=O)[C@H](c2cc([C@H]3CC[C@H](c4cnc(N5CCC(c6c[nH]c7nnc(-c8ccccc8O)cc67)CC5)nc4)CC3)no2)C(C)C)cc1 [Compound 310, (2S,4R)-4-hydroxy-N-[(1S)-1-[4-(4-methyl-1,3-thiazol-5-yl)phenyl]ethyl]-1-[(2S)-3-methyl-2-{3-[(1r,4r)-4-(2-{4-[3-(2-hydroxyphenyl)-7H-pyrrolo[2,3-c]pyridazin-5-yl]piperidin-1-yl}pyrimidin-5-yl)cyclohexyl]-1,2-oxazol-5-yl}butanoyl]pyrrolidine-2-carboxamide] | A (“A” indicates maximum degradation ≥ 75%) |  |  | 
8 | > 100 nM | > 50% |  | Cc1ncsc1-c1ccc([C@H](C)NC(=O)[C@@H]2C[C@@H](O)CN2C(=O)[C@@H](c2cc(OCCNCCN3CC(c4cc5cc(-c6ccccc6O)nnc5[nH]4)C3)no2)C(C)C)cc1 (racemic) [Compound 300] | A (“A” indicates maximum degradation ≥ 75%) |  |  | 
9 | > 1000 nM | < 50% |  | Cc1ncsc1-c1ccc([C@H](C)NC(=O)[C@@H]2C[C@@H](O)CN2C(=O)[C@@H](c2cc(OCC(=O)N3CC(c4cc5cc(-c6ccccc6O)nnc5[nH]4)C3)no2)C(C)C)cc1 (racemic) [Compound 305, (2S,4R)-4-hydroxy-1-((R)-2-(3-(2-(3-(3-(2-hydroxyphenyl)-7H-pyrrolo[2,3-c]pyridazin-6-yl)azetidin-1-yl)-2-oxoethoxy)isoxazol-5-yl)-3-methylbutanoyl)-N-((S)-1-(4-(4-methylthiazol-5-yl)phenyl)ethyl)pyrrolidine-2-carboxamide] | A (“A” indicates maximum degradation ≥ 75%) |  |  | 
10 | > 10 nM | > 50% | > 1000 nM | Cc1ncsc1-c1ccc([C@H](C)NC(=O)[C@@H]2C[C@@H](O)CN2C(=O)[C@@H](c2cc(OCCN3C[C@@H]4[C@H](C3)[C@H]4c3cc4cc(-c5cc(F)ccc5O)nnc4[nH]3)no2)C(C)C)cc1 (racemic) [Compound 224, (2S,4R)-1-((R)-2-(3-(2-((1R,5S,6R)-6-(3-(5-fluoro-2-hydroxyphenyl)-7H-pyrrolo[2,3-c]pyridazin-6-yl)-3-azabicyclo[3.1.0]hexan-3-yl)ethoxy)isoxazol-5-yl)-3-methylbutanoyl)-4-hydroxy-N-((S)-1-(4-(4-methylthiazol-5-yl)phenyl)ethyl)pyrrolidine-2-carboxamide] | A (“A” indicates maximum degradation ≥ 75%) |  |  | 
11 | > 10 nM | > 50% | > 1000 nM | Cc1ncsc1-c1ccc([C@H](C)NC(=O)[C@@H]2C[C@@H](O)CN2C(=O)[C@@H](c2cc(N3CCC(CN4CC(c5cc6cc(-c7ccccc7O)nnc6[nH]5)C4)CC3)no2)C(C)C)cc1 (racemic) [Compound 247, (2S,4R)-4-hydroxy-1-((R)-2-(3-(4-((3-(3-(2-hydroxyphenyl)-7H-pyrrolo[2,3-c]pyridazin-6-yl)azetidin-1-yl)methyl)piperidin-1-yl)isoxazol-5-yl)-3-methylbutanoyl)-N-((S)-1-(4-(4-methylthiazol-5-yl)phenyl)ethyl)pyrrolidine-2-carboxamide] | A (“A” indicates maximum degradation ≥ 75%) |  |  | 
